Test results taken from patent EP4667582A1, “FACTOR XA REAGENT” (Instrumentation Laboratory Company, priority 2024, dated 2025).
Where a name gives a salt, the structure may show the parent alone.

Key:
Format in all cases: biochemical
factor Xa [1] = assay: factor Xa chromogenic assay with guanidine derivatives (substrate S-2732, mAbs/min at 405 nm); details: for factor Xa inhibition: Fig. 4, dilutions in water, 6nkat/mL factor Xa, 20mM HEPES pH 7.5, 1.5 mM S-2732, ranking between compounds; for factor Xa activity: Fig. 3, activity plotted against guanidine derivative or NaCl concentration, 6 nkat/mL factor Xa, 20mM Hepes pH 7.5, 37°C, 1.5mM S-2732
Procedure: In this experiment, activity of factor Xa in the presence of guanidine sulfate and its derivatives (e.g., 1-methylguanidine sulfate, 1,1-dimethylguanidine sulfate, 1,1-diethylguanidine, N-benzyl, N-methylguanidine sulfate, 1,1,3,3-tetramethylgunidine and 1,1-dimethylbiguanide HCl) was evaluated using a chromogenic assay. In the experiment, each guanidine derivative was dissolved in deionized (DI) water to a final concentration of 100mM. A number of such guanidine dilutions were prepared. Guanidine derivative levels in the solutions were tested in triplicate at 37°C as follows: 40µL (microliters) of each guanidine derivative level was incubated for 20 seconds (s) to 60s before 40µL of 6 nkat/mL factor Xa in 20mM Hepes pH 7.5 buffer was added to the reaction. After an incubation period of 150s to 180s, 100µL of 1.5mM factor Xa chromogenic substrate S-2732™ was added to the reaction and milli-absorbance per minute (mAbs/min) at 405nm (nanometers) was measured after a 20s delay.
In this experiment, the effects of guanidine sulfate and the guanidine derivatives: 1-methylguanidine sulfate, 1,1-dimethylguanidine sulfate, 1,1-diethylguanidine, and N-benzyl, N-methylguanidine sulfate were analyzed using a chromogenic assay. A number of dilutions were prepared in water with guanidine or a guanidine derivative of the type described herein. 40µL of each of the guanidine or guanidine derivatives were mixed for 20s to 60s with 40µL of 6nkat/mL factor Xa diluted in 20mM HEPES, pH 7.5 buffer. After an incubation period of 150s to 180s, 100µL of the factor Xa chromogenic substrate S-2732™ (1.5 mM) was added to each of the guanidine and factor Xa mixtures and each mixture was chromogenically measured at 405nm mAbs/min after a 20s delay.

factor Xa [2] = assay: factor Xa substrate turnover rates at a range of factor Xa levels, 1,1-dimethylguanidine compared to NaCl; details: Fig. 6; 22mM 1,1-dimethylguanidine compared to 33 mM NaCl; 37°C, 1.5mM S-2732
Procedure: Guanidine derivatives modulate factor Xa enzymatic activity in a reaction, as explained previously, thereby slowing-down the reaction. As a result, greater amounts and/or concentrations of factor Xa can be used in a reaction when a guanidine derivative is incorporated into the reaction. In this experiment, factor Xa levels were tested in a reaction in triplicate at 37°C as follows: 40µL of factor Xa was incubated for 20s to 60s before 40µL of 100mM 1,1-dimethylguanidine or 150mM NaCl in water was added to the reaction. After an incubation period of 150s to 180s, 100µL of 1.5mM factor Xa chromogenic substrate S-2732™ was added to the reaction and mAbs/min at 405 nm was measured after a 20s delay. In Fig. 6, substrate turnover rates (e.g., coloring of the substrate) in the presence of 22mM 1,1-dimethylguanidine 601 were compared to substrate turnover rates in the presence of 33 mM NaCl 602. As evident from Fig. 6, greater amounts and/or concentrations of factor Xa can be added to the reaction in the presence of 1,1-dimethylguanidine to produce the same substrate turnover rates relative to NaCl. […] Greater amounts and/or concentrations of factor Xa facilitate detection of factor Xa inhibitors or reversal of such inhibitors in an assay, as noted previously.

factor Xa [3] = assay: factor Xa chromogenic activity in plasma sample containing dimethylguanidine (9:1 sample to factor Xa ratio); details: Fig. 7, 50mM compared to 25mM dimethylguanidine, 1.5 mM S-2732, 37°C
Procedure: In this experiment, 180µL of a plasma sample containing dimethylguanidine (DMG) and 1.5 mM substrate S-2732™ were mixed with 20µL of factor Xa (a 9:1 sample to factor Xa ratio). The activity of factor Xa was determined at 37°C based on chromogenic activity of the substrate. The activity of factor Xa linearly correlates with the factor Xa concentration in the presence of dimethylguanidine. […] Thus, increasing the amount of dimethylguanidine in a sample reduces a rate of the reaction. In some implementations, dimethylguanidine can be added to a reaction at a concentration of up to about 500mM.

Compound	factor Xa inhibition (factor Xa [1])	factor Xa activity (factor Xa [1])	other results
CN(Cc1ccccc1)C(=N)N.O=S(=O)(O)O [N-benzyl N-methylguanidine sulfate]	reduced factor Xa inhibition as compared to the factor Xa inhibition of mixtures containing dialkylated guanidine derivatives	–	–
CCN(CC)C(=N)N.O=S(=O)(O)O [1,1-diethylguanidine sulfate]	largest extent of factor Xa inhibition	–	–
NaCl [reference compound]	–	activates factor Xa activity	–
CNC(=N)N [1-methylguanidine sulfate]	reduced factor Xa inhibition as compared to the factor Xa inhibition of mixtures containing dialkylated guanidine derivatives	modulates factor Xa dose-dependently	–
CN(C)C(=N)NC(=N)N [1,1-dimethyl-biguanide, reference compound]	–	modulate factor Xa dose-dependently, although less than 1-methylated guanidine sulfate	–
CN(C)C(=N)N.O=S(=O)(O)O [1,1-dimethylguanidine sulfate]	largest extent of factor Xa inhibition	–	–
N=C(N)N [guanidine sulfate]	least amount of reduction in factor Xa inhibition	modulate factor Xa dose-dependently, although less than 1-methylated guanidine sulfate	–
CN(C)C(=N)N [1,1-dimethylguanidine]	–	–	substrate turnover rates (factor Xa [2]): the reaction has been slowed-down; rate of the reaction (activity of factor Xa) (factor Xa [3]): slows reaction of the factor Xa in a sample greater than 25mM
